# Results: ChEMBL document CHEMBL1926576, “Fragment based lead discovery of small molecule inhibitors for the EPHA4 receptor tyrosine kinase” (Eur J Med Chem, 2012)
# Columns and labels:
# [1] = target: Aurora kinase A (Homo sapiens) (UniProt O14965); test: Inhibition of aurora-A assessed as residual activity at 10 uM using [33P-ATP] by radiometric filter binding assay
# [2] = target: Mitogen-activated protein kinase kinase kinase 1 (Homo sapiens) (UniProt Q13233); test: Inhibition of MEKK1 assessed as residual activity at 10 uM using [33P-ATP] by radiometric filter binding assay
# [3] = target: Casein kinase I isoform alpha (Homo sapiens) (UniProt P48729); test: Inhibition of CK1 assessed as residual activity at 10 uM using [33P-ATP] by radiometric filter binding assay
# [4] = target: Ephrin type-A receptor 2 (Homo sapiens) (UniProt P29317); test: Inhibition of EPHA2 assessed as residual activity at 10 uM using [33P-ATP] by radiometric filter binding assay
# [5] = target: RAC-alpha serine/threonine-protein kinase (Homo sapiens) (UniProt P31749); test: Inhibition of PKBalpha assessed as residual activity at 10 uM using [33P-ATP] by radiometric filter binding assay
# [6] = target: Ephrin type-B receptor 2 (Homo sapiens) (UniProt P29323); test: Inhibition of EPHB2 assessed as residual activity at 10 uM using [33P-ATP] by radiometric filter binding assay
# [7] = target: NUAK family SNF1-like kinase 1 (Homo sapiens) (UniProt O60285); test: Inhibition of NUAK1 assessed as residual activity at 10 uM using [33P-ATP] by radiometric filter binding assay
# [8] = target: Mitogen-activated protein kinase 11 (Homo sapiens) (UniProt Q15759); test: Inhibition of p38beta MAPK assessed as residual activity at 10 uM using [33P-ATP] by radiometric filter binding assay
# [9] = target: Serine/threonine-protein kinase PAK 2 (Homo sapiens) (UniProt Q13177); test: Inhibition of PAK2 assessed as residual activity at 10 uM using [33P-ATP] by radiometric filter binding assay
# [10] = target: MAP/microtubule affinity-regulating kinase 3 (Homo sapiens) (UniProt P27448); test: Inhibition of MARK3 assessed as residual activity at 10 uM using [33P-ATP] by radiometric filter binding assay
# [11] = target: Mitogen-activated protein kinase kinase kinase kinase 2 (Homo sapiens) (UniProt Q12851); test: Inhibition of GCK assessed as residual activity at 10 uM using [33P-ATP] by radiometric filter binding assay
# [12] = target: Mitogen-activated protein kinase kinase kinase 7 (Homo sapiens) (UniProt O43318); test: Inhibition of TAK1 assessed as residual activity at 10 uM using [33P-ATP] by radiometric filter binding assay
# [13] = target: Receptor tyrosine-protein kinase erbB-4 (Homo sapiens) (UniProt Q15303); test: Inhibition of HER4 assessed as residual activity at 10 uM using [33P-ATP] by radiometric filter binding assay
# [14] = target: Serine/threonine-protein kinase PAK 4 (Homo sapiens) (UniProt O96013); test: Inhibition of PAK4 assessed as residual activity at 10 uM using [33P-ATP] by radiometric filter binding assay
# [15] = target: Tyrosine-protein kinase Lck (Homo sapiens) (UniProt P06239); test: Inhibition of Lck assessed as residual activity at 10 uM using [33P-ATP] by radiometric filter binding assay
# [16] = target: Serine/threonine-protein kinase MARK2 (Homo sapiens) (UniProt Q7KZI7); test: Inhibition of MARK2 assessed as residual activity at 10 uM using [33P-ATP] by radiometric filter binding assay
# [17] = target: Homeodomain-interacting protein kinase 2 (Homo sapiens) (UniProt Q9H2X6); test: Inhibition of HIPK2 assessed as residual activity at 10 uM using [33P-ATP] by radiometric filter binding assay
# [18] = target: Serine/threonine-protein kinase 16 (Homo sapiens) (UniProt O75716); test: Inhibition of MPSK1 assessed as residual activity at 10 uM using [33P-ATP] by radiometric filter binding assay
# [19] = target: Calcium/calmodulin-dependent protein kinase kinase 2 (Homo sapiens) (UniProt Q96RR4); test: Inhibition of CAMKKbeta assessed as residual activity at 10 uM using [33P-ATP] by radiometric filter binding assay
# [20] = target: Mitogen-activated protein kinase kinase kinase 9 (Homo sapiens) (UniProt P80192); test: Inhibition of MLK1 assessed as residual activity at 10 uM using [33P-ATP] by radiometric filter binding assay
# [21] = target: Homeodomain-interacting protein kinase 3 (Homo sapiens) (UniProt Q9H422); test: Inhibition of HIPK3 assessed as residual activity at 10 uM using [33P-ATP] by radiometric filter binding assay
# [22] = target: Eukaryotic translation initiation factor 2-alpha kinase 3 (Homo sapiens) (UniProt Q9NZJ5); test: Inhibition of EIF2AK3 assessed as residual activity at 10 uM using [33P-ATP] by radiometric filter binding assay
# [23] = target: MAP kinase-activated protein kinase 5 (Homo sapiens) (UniProt Q8IW41); test: Inhibition of PRAK assessed as residual activity at 10 uM using [33P-ATP] by radiometric filter binding assay
# [24] = target: Insulin receptor (Homo sapiens) (UniProt P06213); test: Inhibition of IR assessed as residual activity at 10 uM using [33P-ATP] by radiometric filter binding assay
# [25] = target: SRSF protein kinase 1 (Homo sapiens) (UniProt Q96SB4); test: Inhibition of SRPK1 assessed as residual activity at 10 uM using [33P-ATP] by radiometric filter binding assay
# [26] = target: Tyrosine-protein kinase ZAP-70 (Homo sapiens) (UniProt P43403); test: Inhibition of ZAP70 assessed as residual activity at 10 uM using [33P-ATP] by radiometric filter binding assay
# [27] = target: Angiopoietin-1 receptor (Homo sapiens) (UniProt Q02763); test: Inhibition of TIE2 assessed as residual activity at 10 uM using [33P-ATP] by radiometric filter binding assay
# [28] = target: Mitogen-activated protein kinase 8 (Homo sapiens) (UniProt P45983); test: Inhibition of JNK1 assessed as residual activity at 10 uM using [33P-ATP] by radiometric filter binding assay
# [29] = target: Serine/threonine-protein kinase Chk2 (Homo sapiens) (UniProt O96017); test: Inhibition of CHK2 assessed as residual activity at 10 uM using [33P-ATP] by radiometric filter binding assay
# [30] = target: Protein-tyrosine kinase 6 (Homo sapiens) (UniProt Q13882); test: Inhibition of BRK assessed as residual activity at 10 uM using [33P-ATP] by radiometric filter binding assay
# [31] = Inhibition of VEGFR assessed as residual activity at 10 uM using [33P-ATP] by radiometric filter binding assay
# [32] = target: Death-associated protein kinase 1 (Homo sapiens) (UniProt P53355); test: Inhibition of DAPK1 assessed as residual activity at 10 uM using [33P-ATP] by radiometric filter binding assay
# Sequence of Ephrin type-B receptor 2 (Homo sapiens) (P29323 whole entry): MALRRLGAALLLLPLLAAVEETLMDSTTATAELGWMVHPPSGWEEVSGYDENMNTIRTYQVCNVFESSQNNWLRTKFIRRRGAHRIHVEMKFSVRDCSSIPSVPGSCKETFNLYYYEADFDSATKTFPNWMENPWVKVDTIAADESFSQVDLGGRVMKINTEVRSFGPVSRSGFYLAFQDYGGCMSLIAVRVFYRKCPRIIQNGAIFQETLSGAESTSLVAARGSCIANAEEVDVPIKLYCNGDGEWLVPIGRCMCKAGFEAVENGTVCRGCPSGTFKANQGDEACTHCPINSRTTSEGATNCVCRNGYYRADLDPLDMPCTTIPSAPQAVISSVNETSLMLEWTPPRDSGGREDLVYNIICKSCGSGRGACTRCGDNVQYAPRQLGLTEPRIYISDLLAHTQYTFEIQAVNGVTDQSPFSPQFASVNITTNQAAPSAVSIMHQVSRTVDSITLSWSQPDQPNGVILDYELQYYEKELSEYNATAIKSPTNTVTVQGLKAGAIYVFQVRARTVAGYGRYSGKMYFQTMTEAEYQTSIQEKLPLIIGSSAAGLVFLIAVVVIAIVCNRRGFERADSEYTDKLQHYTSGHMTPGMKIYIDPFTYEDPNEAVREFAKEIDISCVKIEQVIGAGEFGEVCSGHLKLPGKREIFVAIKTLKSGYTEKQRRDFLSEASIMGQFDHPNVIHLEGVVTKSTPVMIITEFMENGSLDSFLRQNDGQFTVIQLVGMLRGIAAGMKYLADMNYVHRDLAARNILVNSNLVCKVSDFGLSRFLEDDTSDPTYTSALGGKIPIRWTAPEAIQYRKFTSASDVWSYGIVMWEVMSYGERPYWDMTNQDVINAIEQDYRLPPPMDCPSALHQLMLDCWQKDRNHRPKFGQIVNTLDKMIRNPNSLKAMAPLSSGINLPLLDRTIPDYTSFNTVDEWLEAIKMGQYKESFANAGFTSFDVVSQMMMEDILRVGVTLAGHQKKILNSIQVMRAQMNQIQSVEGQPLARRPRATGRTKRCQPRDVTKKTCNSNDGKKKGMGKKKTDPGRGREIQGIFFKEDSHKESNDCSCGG
# Sequence of Casein kinase I isoform alpha (Homo sapiens) (P48729 2-337 limits assumed): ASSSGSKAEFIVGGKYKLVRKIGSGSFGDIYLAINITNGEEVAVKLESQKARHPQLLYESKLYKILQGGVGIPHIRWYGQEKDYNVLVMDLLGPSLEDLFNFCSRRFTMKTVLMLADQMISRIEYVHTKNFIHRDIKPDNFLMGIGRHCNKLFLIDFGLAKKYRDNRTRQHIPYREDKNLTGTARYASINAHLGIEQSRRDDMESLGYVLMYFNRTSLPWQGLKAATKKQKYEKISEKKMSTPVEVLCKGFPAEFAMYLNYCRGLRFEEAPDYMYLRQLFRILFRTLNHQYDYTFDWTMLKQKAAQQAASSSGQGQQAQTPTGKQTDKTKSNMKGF
# Sequence of NUAK family SNF1-like kinase 1 (Homo sapiens) (O60285 whole entry): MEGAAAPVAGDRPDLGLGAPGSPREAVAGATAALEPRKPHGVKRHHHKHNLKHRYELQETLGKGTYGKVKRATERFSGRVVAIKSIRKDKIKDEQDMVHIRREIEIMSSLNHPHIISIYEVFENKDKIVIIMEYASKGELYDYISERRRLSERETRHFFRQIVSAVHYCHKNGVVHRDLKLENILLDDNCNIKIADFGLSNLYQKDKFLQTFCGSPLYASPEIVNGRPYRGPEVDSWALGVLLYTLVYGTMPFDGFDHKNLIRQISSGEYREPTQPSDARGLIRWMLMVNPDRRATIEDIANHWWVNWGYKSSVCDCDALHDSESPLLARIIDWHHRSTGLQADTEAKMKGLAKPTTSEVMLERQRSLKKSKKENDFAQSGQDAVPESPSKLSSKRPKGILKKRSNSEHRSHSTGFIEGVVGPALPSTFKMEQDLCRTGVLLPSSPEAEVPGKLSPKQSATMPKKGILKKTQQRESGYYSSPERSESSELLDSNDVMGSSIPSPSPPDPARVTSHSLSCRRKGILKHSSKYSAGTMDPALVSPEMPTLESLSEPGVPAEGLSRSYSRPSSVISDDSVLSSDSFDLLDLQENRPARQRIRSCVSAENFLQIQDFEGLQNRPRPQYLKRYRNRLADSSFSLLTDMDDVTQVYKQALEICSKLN
# Sequence of Serine/threonine-protein kinase Chk2 (Homo sapiens) (O96017 whole entry): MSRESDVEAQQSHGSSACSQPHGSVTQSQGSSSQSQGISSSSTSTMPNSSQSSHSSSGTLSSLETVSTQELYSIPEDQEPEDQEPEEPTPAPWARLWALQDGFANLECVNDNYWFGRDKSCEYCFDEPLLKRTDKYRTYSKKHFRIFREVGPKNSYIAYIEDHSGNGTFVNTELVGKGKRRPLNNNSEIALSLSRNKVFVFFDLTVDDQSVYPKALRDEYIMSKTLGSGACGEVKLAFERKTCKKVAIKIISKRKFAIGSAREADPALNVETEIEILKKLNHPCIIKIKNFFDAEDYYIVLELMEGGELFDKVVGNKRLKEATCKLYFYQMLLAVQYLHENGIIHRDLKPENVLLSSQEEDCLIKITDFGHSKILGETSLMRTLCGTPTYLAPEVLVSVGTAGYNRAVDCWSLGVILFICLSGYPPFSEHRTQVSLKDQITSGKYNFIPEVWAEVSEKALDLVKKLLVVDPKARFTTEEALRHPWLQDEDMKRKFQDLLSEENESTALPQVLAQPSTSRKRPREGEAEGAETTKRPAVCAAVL
# Sequence of Receptor tyrosine-protein kinase erbB-4 (Homo sapiens) (Q15303 whole entry): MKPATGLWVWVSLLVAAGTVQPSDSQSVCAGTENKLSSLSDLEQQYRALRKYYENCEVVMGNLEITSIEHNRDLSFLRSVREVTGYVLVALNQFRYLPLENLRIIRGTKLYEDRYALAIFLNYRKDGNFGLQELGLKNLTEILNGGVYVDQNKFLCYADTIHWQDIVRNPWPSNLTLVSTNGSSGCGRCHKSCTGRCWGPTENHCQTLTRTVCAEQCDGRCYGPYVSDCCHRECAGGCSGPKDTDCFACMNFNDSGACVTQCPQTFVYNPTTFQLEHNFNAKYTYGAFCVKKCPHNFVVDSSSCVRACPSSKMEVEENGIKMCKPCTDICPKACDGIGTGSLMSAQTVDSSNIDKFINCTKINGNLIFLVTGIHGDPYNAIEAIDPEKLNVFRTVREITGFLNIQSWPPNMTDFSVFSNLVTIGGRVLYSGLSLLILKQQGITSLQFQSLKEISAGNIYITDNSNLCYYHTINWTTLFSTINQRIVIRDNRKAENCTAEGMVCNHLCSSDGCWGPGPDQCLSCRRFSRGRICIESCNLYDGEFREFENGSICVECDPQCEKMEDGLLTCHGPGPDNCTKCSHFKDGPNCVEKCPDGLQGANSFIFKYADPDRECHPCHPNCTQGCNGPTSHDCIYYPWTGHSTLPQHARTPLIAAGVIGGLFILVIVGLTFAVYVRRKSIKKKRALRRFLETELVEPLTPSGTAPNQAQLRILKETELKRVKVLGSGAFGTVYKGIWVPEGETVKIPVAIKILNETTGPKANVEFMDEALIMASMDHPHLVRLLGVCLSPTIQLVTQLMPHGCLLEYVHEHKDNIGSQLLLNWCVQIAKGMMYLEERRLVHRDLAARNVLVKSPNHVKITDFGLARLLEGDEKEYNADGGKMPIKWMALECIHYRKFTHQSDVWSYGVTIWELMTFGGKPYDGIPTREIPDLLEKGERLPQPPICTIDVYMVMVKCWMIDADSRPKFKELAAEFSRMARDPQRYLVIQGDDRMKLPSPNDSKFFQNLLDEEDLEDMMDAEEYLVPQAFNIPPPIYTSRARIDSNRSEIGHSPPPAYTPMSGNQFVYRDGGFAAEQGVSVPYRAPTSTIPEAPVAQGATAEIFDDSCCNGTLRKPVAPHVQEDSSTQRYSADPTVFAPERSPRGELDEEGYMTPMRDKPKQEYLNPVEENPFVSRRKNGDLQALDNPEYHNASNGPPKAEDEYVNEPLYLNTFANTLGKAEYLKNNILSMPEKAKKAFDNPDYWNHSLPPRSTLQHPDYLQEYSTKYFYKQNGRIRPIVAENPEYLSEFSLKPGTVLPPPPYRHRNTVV
# Sequence of Protein-tyrosine kinase 6 (Homo sapiens) (Q13882 whole entry, looked up): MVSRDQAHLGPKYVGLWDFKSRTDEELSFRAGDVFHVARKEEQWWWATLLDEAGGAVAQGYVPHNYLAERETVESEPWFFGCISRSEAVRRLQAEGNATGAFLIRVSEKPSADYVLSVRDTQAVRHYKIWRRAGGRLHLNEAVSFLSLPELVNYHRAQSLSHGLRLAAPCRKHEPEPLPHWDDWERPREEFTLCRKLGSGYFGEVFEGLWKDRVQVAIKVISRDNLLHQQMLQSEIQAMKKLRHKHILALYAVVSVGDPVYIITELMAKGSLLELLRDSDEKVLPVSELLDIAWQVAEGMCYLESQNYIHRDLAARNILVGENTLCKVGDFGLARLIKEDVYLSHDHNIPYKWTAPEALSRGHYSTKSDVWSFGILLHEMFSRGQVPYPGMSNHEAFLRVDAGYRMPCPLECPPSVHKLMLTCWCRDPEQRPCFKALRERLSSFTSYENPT
# Sequence of Tyrosine-protein kinase Lck (Homo sapiens) (P06239 2-509 limits assumed): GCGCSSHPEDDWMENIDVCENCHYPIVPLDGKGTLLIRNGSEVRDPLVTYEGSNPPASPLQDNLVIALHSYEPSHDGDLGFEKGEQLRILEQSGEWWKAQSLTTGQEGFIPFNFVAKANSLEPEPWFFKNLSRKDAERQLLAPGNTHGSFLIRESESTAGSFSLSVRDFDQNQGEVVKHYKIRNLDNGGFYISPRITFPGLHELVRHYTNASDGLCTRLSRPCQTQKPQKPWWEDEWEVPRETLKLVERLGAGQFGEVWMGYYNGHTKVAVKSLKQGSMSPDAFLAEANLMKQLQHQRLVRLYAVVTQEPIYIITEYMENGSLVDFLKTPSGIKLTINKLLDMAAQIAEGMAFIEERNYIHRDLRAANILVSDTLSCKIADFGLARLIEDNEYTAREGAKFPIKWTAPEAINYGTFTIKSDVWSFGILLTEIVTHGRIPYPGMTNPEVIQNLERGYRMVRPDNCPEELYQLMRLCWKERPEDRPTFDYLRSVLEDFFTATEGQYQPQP
structure (smiles),measurement,setting,value
Cc1ccc(F)cc1-c1nc2[nH]nc(N)c2c2c1CCCC2,Activity,[1],68%
same,Activity,[2],115%
same,Activity,[3],96%
same,Activity,[4],29%
same,Activity,[5],79%
same,Activity,[6],4%
same,Activity,[7],79%
same,Activity,[8],25%
same,Activity,[9],79%
same,Activity,[10],81%
same,Activity,[11],59%
same,Activity,[12],96%
same,Activity,[13],56%
same,Activity,[14],82%
same,Activity,[15],8%
same,Activity,[16],78%
same,Activity,[17],98%
same,Activity,[18],71%
same,Activity,[19],89%
same,Activity,[20],63%
same,Activity,[21],94%
same,Activity,[22],82%
same,Activity,[23],97%
same,Activity,[24],83%
same,Activity,[25],89%
same,Activity,[26],107%
same,Activity,[27],65%
same,Activity,[28],94%
same,Activity,[29],113%
same,Activity,[30],71%
same,Activity,[31],76%
same,Activity,[32],101%
